Test results as given in US20250145606A1 (Arcus Biosciences, Inc., priority 2023, published 2025).
Where two headings read alike, the source gives them in different places.

Experiments:
c-Kit = c-Kit (Homo sapiens (Human), UniProt P10721); assay: Inhibition of c-Kit kinase activity (HTRF KinEASE-TK); assay type: biochemical; conditions: biochemical, HTRF KinEASE-TK
In short: (§1)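 Phosphorylation of biotinylated TK peptide read by HTRF (665/620 nm ratio) after 120 min at rt, following 1 h enzyme–compound preincubation. ATP (2× mix): 20 μM CSF1R, 16 μM c-Kit, 40 μM PDGFRβ, 1 μM PDGFRα; MgCl2 10 mM except c-Kit 5 mM. 22-point 1:2 titration; four-parameter IC50.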

PDGFRα = PDGFRα (Homo sapiens (Human), UniProt P16234); assay: Inhibition of PDGFRα kinase activity (HTRF KinEASE-TK); conditions: biochemical, HTRF KinEASE-TK
PDGFRα, sequence (P16234 24-1089): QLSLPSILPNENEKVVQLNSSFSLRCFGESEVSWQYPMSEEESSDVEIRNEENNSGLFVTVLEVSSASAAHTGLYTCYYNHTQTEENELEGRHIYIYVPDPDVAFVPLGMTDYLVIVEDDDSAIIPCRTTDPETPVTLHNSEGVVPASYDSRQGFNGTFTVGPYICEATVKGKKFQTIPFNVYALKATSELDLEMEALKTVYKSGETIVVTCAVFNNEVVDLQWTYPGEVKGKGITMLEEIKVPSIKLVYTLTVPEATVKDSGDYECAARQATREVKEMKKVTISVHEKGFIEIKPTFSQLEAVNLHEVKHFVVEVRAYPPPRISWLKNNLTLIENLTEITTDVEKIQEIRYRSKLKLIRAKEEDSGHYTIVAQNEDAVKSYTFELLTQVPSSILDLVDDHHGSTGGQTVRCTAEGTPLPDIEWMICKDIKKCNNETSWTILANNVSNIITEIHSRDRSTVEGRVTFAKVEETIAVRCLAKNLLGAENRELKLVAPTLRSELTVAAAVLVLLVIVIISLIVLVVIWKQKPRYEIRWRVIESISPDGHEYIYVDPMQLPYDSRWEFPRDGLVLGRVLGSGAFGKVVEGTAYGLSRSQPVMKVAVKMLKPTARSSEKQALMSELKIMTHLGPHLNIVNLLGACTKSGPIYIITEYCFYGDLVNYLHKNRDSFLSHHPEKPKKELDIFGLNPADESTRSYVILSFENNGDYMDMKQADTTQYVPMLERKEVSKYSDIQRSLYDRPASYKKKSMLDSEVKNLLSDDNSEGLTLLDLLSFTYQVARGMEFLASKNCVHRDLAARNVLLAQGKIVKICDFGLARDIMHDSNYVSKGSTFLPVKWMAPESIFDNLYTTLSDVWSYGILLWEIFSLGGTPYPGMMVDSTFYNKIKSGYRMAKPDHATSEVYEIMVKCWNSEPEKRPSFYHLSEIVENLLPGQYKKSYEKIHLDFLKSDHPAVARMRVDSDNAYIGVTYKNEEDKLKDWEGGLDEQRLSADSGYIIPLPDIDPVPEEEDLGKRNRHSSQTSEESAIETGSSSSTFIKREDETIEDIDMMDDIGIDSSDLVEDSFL
In short: as §1

PDGFRβ = PDGFRβ (Homo sapiens (Human), UniProt P09619); assay: Inhibition of PDGFRβ kinase activity (HTRF KinEASE-TK); conditions: biochemical, HTRF KinEASE-TK
PDGFRβ, sequence (P09619 33-1106): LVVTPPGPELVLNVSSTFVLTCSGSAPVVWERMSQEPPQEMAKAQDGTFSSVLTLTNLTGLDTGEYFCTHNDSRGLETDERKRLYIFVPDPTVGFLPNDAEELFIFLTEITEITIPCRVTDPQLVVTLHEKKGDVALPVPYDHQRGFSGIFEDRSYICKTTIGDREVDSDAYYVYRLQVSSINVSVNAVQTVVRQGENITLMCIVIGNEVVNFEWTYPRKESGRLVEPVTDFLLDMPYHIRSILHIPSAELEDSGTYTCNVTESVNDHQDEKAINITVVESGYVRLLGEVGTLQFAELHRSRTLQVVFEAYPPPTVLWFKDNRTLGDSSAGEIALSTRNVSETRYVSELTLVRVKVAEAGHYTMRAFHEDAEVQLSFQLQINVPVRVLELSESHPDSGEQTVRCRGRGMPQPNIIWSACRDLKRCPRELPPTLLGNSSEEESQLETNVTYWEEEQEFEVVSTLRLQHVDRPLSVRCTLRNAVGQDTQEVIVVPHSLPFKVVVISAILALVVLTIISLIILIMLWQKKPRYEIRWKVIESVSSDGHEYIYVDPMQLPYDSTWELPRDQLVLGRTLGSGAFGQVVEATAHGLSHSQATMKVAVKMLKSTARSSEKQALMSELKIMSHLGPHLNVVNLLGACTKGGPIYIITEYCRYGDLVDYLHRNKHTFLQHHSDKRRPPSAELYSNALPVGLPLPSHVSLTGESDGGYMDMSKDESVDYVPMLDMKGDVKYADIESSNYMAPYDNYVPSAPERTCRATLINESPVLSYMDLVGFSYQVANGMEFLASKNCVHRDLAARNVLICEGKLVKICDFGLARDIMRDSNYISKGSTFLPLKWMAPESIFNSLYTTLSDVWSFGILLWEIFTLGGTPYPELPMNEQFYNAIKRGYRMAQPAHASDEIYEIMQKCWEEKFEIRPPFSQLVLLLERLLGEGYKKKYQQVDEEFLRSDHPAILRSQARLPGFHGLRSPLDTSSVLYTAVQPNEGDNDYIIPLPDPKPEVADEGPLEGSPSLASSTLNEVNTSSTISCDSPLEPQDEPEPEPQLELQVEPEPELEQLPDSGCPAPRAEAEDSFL
In short: as §1

CSF1R = CSF1R (Homo sapiens (Human), UniProt P07333); assay: Inhibition of CSF1R kinase activity (HTRF KinEASE-TK); conditions: biochemical, HTRF KinEASE-TK
CSF1R, sequence (P07333 20-972): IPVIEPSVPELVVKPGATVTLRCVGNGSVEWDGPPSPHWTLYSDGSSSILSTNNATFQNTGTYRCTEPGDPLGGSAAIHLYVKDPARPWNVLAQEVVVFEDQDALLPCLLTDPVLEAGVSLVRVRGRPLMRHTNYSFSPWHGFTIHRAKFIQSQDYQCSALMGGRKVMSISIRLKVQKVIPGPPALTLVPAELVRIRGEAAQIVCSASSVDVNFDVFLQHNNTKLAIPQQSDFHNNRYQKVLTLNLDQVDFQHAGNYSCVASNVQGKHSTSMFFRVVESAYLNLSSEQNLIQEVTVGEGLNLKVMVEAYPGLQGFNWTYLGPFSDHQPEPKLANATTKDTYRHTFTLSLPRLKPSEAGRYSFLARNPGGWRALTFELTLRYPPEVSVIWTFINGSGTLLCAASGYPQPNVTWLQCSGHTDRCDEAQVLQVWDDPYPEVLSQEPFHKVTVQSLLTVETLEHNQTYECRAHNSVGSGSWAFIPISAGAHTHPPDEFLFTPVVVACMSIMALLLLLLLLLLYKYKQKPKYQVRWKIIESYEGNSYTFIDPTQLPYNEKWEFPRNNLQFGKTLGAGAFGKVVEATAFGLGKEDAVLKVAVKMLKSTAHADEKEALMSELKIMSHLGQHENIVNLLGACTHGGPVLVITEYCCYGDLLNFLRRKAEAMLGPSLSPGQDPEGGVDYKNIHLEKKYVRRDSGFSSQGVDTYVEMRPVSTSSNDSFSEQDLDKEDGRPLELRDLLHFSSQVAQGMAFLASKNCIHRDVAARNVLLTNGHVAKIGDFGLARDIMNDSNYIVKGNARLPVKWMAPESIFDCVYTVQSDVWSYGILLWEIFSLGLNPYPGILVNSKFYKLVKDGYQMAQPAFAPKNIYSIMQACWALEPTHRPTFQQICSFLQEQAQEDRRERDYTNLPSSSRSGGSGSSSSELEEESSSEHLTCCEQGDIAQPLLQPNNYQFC
In short: as §1

[1] = test system: Phospho-KIT (Y703) in M07e cells; assay: Phospho-KIT (Y703) cellular assay in M07e cells; assay type: cell-based; conditions: M-07e
Protocol: Phospho-KIT (Y703) Cellular Assay in M07e Cells
The day prior to assay, M07e cells (DSMZ, catalog #ACC 104) were serum starved. Cells were centrifuged and cell pellet resuspended in OptiMEM (Gibco, catalog #31985062) to a density of 1×10^6-2.5×10^6 cells per mL. Cells were then incubated overnight at 5% CO2 and 37° C. in an appropriately sized flask. On the day of the experiment, an 11 point, half log titration of test compound was pre-dispensed into 96-well round bottom polypropylene plates (Corning, catalog #3365). The serum starved M07e cells were centrifuged and resuspended to a cell density of 1×10^6 cells per mL with DPBS (Gibco, catalog #14190-144). Live/Dead Green Fixable viability dye (Invitrogen, catalog #L34970) was added as 1 μL/1 mL of cell suspension. Cells were then incubated in the dark at 4° C. for 30 min. Cells were washed by centrifugation and resuspension with DPBS+0.5% BSA (Gemini Bio Products, catalog #700110/100, 30% BSA solution). Cells were resuspended, separated into two equal volumes and again centrifuged. Cell pellets were resuspended with OptiMEM™ to a cell density of 1×10^6 cells per mL. Cells were then added to the appropriate compound plate at 100,000 cells per well in 100 μL and mixed. Plates were incubated at 5% CO2 and 37° C. for 50 min. Stem Cell Factor, SCF (R&D Systems, #255-SC/CF) was diluted in OptiMEM to 1 μg/mL and added to all wells as 10 μL for a final concentration of 90.9 ng/mL. Plates were incubated at 5% CO2 and 37° C. for 10 min. Incubation was stopped by addition of 110 μL 4% paraformaldehyde solution in PBS (Life Technologies, catalog #J19943.K2). Plates were incubated at rt for at least 15 min. Plates were then centrifuged and supernatant removed by flicking. Cells were washed once by resuspension in 200 μL DPBS+0.5% BSA, centrifuged, and supernatant removed by flicking. Cells were resuspended in 100 μL 1X Permeabilization buffer (Invitrogen, catalog #88882400) and plates incubated at rt for 30 min. Plates were centrifuged, supernatant removed by flicking, and cells resuspended in 50 μL primary antibody, anti-phospho-c-KIT (Tyr703) (Cell Signaling, catalog #3073), diluted to 1 μg/mL with permeabilization buffer. Plates were incubated at rt for 1 h. Plates were centrifuged, supernatant removed, and cells resuspended with 200 μL DPBS+0.5% BSA. Plates were again centrifuged, supernatant removed by flicking, and cells resuspended in 100 μL secondary antibody, goat anti-rabbit AlexaFluor647 (AF647) (Invitrogen, catalog #A21244) diluted to 1 μg/mL with DPBS+0.5% BSA. Plates were incubated at rt for 30 min. followed by centrifugation, supernatant removal, and cell resuspension with 200 μL DPBS+0.5% BSA. Cells were washed again by centrifugation, supernatant removal, and cell resuspension with 200 μL DPBS+0.5% BSA. Samples were then read by flow cytometry. The Forward: Side scatter plot was gated and that population was gated for live cells based on the Live/Dead Green staining. The geometric mean of AF647 of the live cell population was recorded. Percentage maximum activity in each test well was calculated based on DMSO (100% activity) and positive control treated cell wells (0% activity). The potencies (IC50 values) of test compounds were determined using a standard 4-parameter non-linear regression fit.

[2] = Phospho-KIT (Y703), M07e cells, read-out: M07e Cell IC50
[3] = M07e cells, read-out: Phospho-KIT (Y703) cellular IC50

c-Kit, sequence (P10721 26-976): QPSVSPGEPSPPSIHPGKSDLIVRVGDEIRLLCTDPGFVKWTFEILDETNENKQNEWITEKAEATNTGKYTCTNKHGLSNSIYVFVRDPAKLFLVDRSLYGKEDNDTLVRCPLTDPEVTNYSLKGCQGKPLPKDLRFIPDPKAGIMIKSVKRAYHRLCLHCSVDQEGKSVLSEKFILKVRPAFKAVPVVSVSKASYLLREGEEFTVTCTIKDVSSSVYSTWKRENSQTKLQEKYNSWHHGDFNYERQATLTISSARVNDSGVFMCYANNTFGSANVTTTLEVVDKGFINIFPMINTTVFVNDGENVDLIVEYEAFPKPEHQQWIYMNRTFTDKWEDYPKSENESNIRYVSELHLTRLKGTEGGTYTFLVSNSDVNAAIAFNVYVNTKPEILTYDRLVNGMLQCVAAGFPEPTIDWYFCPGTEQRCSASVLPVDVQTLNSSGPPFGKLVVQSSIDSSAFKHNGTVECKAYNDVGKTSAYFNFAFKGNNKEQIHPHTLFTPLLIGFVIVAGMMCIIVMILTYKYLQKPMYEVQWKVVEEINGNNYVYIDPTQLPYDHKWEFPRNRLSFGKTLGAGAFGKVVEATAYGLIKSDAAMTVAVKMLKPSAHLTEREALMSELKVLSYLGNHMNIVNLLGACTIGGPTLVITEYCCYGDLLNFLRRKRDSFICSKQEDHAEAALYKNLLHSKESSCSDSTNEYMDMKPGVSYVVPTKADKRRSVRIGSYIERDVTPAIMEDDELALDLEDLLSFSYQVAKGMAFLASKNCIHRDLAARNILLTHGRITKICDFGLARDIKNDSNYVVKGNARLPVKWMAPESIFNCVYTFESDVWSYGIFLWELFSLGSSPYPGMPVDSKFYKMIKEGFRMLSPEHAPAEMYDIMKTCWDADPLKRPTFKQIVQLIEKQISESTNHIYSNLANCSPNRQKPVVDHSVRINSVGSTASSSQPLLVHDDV

| IC50 (c-Kit) [nM] | IC50 (PDGFRα) [nM] | IC50 (PDGFRβ) [nM] | IC50 (CSF1R) [nM] | IC50 [1, 2] [nM] | IC50 [1, 3] [nM] | Structure (SMILES) | IC50 ([1]; read-out: M07e Cell IC50) [nM] |
| --- | --- | --- | --- | --- | --- | --- | --- |
| < 100 | > 1000 | > 1000 | > 1000 | < 100 |  | Cc1ncc(C(=O)Nc2cc(C(=O)Nc3cnc(N4CCCC4)cn3)c(F)cc2C)s1 [Example 85, N-{5-[N-5-(1-pyrrolidinyl)-2-pyrazinylcarbamoyl]-4-fluoro-2-tolyl}-2-methyl-1,3-thiazole-5-carboxamide] |  |
| < 100 | > 1000 | > 1000 | > 1000 |  | < 100 | Cc1ncc(C(=O)Nc2cc(C(=O)NCc3ccc(F)c(F)c3)c(F)cc2C)s1 [Example 266, N-[5-[(3,4-difluorophenyl)methylcarbamoyl]-4-fluoro-2-methylphenyl]-2-methyl-1,3-thiazole-5-carboxamide] |  |
| < 100 | > 1000 | > 1000 | > 1000 | 100 to 1000 |  | COC[C@@H]1CCCN1c1cnc(NC(=O)c2cc(NC(=O)c3cnc(C)s3)c(C)cc2F)cn1 [Example 97, N-[4-fluoro-5-[[5-[(2S)-2-(methoxymethyl)pyrrolidin-1-yl]pyrazin-2-yl]carbamoyl]-2-methylphenyl]-2-methyl-1,3-thiazole-5-carboxamide] |  |
| < 100 | > 1000 | 100 to 1000 | 100 to 1000 | < 100 |  | Nc1ncc(C(=O)Nc2cc(C(=O)Nc3ccc(C4CC4)nn3)c(F)cc2Cl)s1 [Example 201, 2-Amino-N-[2-chloro-5-[(6-cyclopropylpyridazin-3-yl)carbamoyl]-4-fluorophenyl]-1,3-thiazole-5-carboxamide] |  |
| < 100 | > 1000 | > 1000 | > 1000 | < 100 |  | Cc1ncc(C(=O)Nc2cc(C(=O)Nc3cccc(CC(F)(F)F)n3)c(F)cc2C)s1 [Example 52, N-[4-fluoro-2-methyl-5-[[6-(2,2,2-trifluoroethyl)pyridin-2-yl]carbamoyl]phenyl]-2-methyl-1,3-thiazole-5-carboxamide] |  |
| < 100 | > 1000 | > 1000 | > 1000 | < 100 |  | CCc1ccc(NC(=O)c2cc(NC(=O)c3cnc(N)s3)c(F)cc2F)nc1 [Example 214, 2-Amino-N-[5-[(5-ethylpyridin-2-yl)carbamoyl]-2,4-difluorophenyl]-1,3-thiazole-5-carboxamide] |  |
| < 100 | > 1000 | > 1000 | > 1000 |  | < 100 | Cc1ncc(C(=O)Nc2cc(C(=O)NCc3cc(F)cc(F)c3)c(F)cc2C)s1 [Example 264, N-[5-[(3,5-difluorophenyl)methylcarbamoyl]-4-fluoro-2-methylphenyl]-2-methyl-1,3-thiazole-5-carboxamide] |  |
| < 100 | > 1000 | > 1000 | > 1000 | < 100 |  | Cc1ncc(C(=O)Nc2cc(C(=O)Nc3cnc(N4CCC(F)(F)C4)cn3)c(F)cc2C)s1 [Example 92, N-[5-[[5-(3,3-difluoropyrrolidin-1-yl)pyrazin-2-yl]carbamoyl]-4-fluoro-2-methylphenyl]-2-methyl-1,3-thiazole-5-carboxamide] |  |
| < 100 | > 1000 | > 1000 | > 1000 | < 100 |  | CO[C@@H]1CCN(c2cnc(NC(=O)c3cc(NC(=O)c4cnc(C)s4)c(C)cc3F)cn2)C1 [Example 74, (R)—N-(4-fluoro-5-((5-(3-methoxypyrrolidin-1-yl)pyrazin-2-yl)carbamoyl)-2-methylphenyl)-2-methylthiazole-5-carboxamide] |  |
| < 100 | > 1000 | > 1000 | > 1000 | < 100 |  | Cc1ncc(C(=O)Nc2cc(C(=O)Nc3ccc(OC(C)C)cn3)c(F)cc2Cl)s1 [Example 48, N-[2-chloro-4-fluoro-5-[(5-propan-2-yloxypyridin-2-yl)carbamoyl]phenyl]-2-methyl-1,3-thiazole-5-carboxamide] |  |
| < 100 | > 1000 | > 1000 | > 1000 |  | < 100 | Cc1ncc(C(=O)Nc2cc(C(=O)NCc3ccc(F)cc3)c(F)cc2C)s1 [Example 262, N-[4-fluoro-5-[(4-fluorophenyl)methylcarbamoyl]-2-methylphenyl]-2-methyl-1,3-thiazole-5-carboxamide] |  |
| < 100 | > 1000 | > 1000 | > 1000 | < 100 |  | Cc1ncc(C(=O)Nc2cc(C(=O)Nc3cnc(N4CC(O)C4)cn3)c(F)cc2C)s1 [Example 71, N-(4-fluoro-5-((5-(3-hydroxyazetidin-1-yl)pyrazin-2-yl)carbamoyl)-2-methylphenyl)-2-methylthiazole-5-carboxamide] |  |
| < 100 | > 1000 | > 1000 | > 1000 |  | < 100 | Cc1ncc(C(=O)Nc2cc(C(=O)NCc3ccc(C(F)(F)F)cc3)c(F)cc2C)s1 [Example 268, N-[4-fluoro-2-methyl-5-[[4-(trifluoromethyl)phenyl]methylcarbamoyl]phenyl]-2-methyl-1,3-thiazole-5-carboxamide] |  |
| < 100 | > 1000 | > 1000 | > 1000 | < 100 |  | Cc1ncc(C(=O)Nc2cc(C(=O)Nc3cnc(OC[C@@H]4CC4(F)F)cn3)c(F)cc2C)s1 [Example 58, N-[5-[[5-[[(1S)-2,2-difluorocyclopropyl]methoxy]pyrazin-2-yl]carbamoyl]-4-fluoro-2-methylphenyl]-2-methyl-1,3-thiazole-5-carboxamide] |  |
| < 100 | > 1000 | > 1000 | 100 to 1000 | < 100 |  | CC(C)Oc1ccc(NC(=O)c2cc(NC(=O)c3cnc(N)s3)c(Cl)cc2F)nc1 [Example 207, 2-Amino-N-[2-chloro-4-fluoro-5-[(5-propan-2-yloxypyridin-2-yl)carbamoyl]phenyl]-1,3-thiazole-5-carboxamide] |  |
| < 100 | > 1000 | > 1000 | > 1000 | < 100 |  | Cc1ncc(C(=O)Nc2cc(C(=O)Nc3cnc(N4CC[C@@H](F)C4)cn3)c(F)cc2C)s1 [Example 94, N-[4-fluoro-5-[[5-[(3R)-3-fluoropyrrolidin-1-yl]pyrazin-2-yl]carbamoyl]-2-methylphenyl]-2-methyl-1,3-thiazole-5-carboxamide] |  |

| Structure (SMILES) | IC50 (c-Kit) [nM] | IC50 (PDGFRα) [nM] | IC50 (PDGFRβ) [nM] | IC50 (CSF1R) [nM] | IC50 [1, 2] [nM] | IC50 [1, 3] [nM] | IC50 ([1]; read-out: M07e Cell IC50) [nM] |
| --- | --- | --- | --- | --- | --- | --- | --- |
| Cc1ncc(C(=O)Nc2cc(C(=O)Nc3ccc(CC(F)(F)F)cn3)c(Cl)cc2C)s1 [Example 99, N-[4-chloro-2-methyl-5-[[5-(2,2,2-trifluoroethyl)pyridin-2-yl]carbamoyl]phenyl]-2-methyl-1,3-thiazole-5-carboxamide] | 100 to 1000 | > 1000 | > 1000 | > 1000 |  |  | 100 to 1000 |
